From patent US6303612A, “Derivatives of hydroxyphenylsulfanylbenzoic and hydroxphenylsulfanylarylacetic acids” (Leciva, A.S., priority 1998, dated 2001)
Values after ≈ are worked out from the molar mass of the structure shown. Counter-ions that a name gives are not always drawn. Like-named read-outs stand apart in the source and are kept apart here.

Tests used:
LTB4 receptor = LTB4 receptor (Cavia porcellus, UniProt H0VYV8); assay: LTB4 receptor binding study; conditions: 3H-LTB4, guinea-pig spleen membranes; for inhibition at 20 µM: read-out: Inh. of LTB4 rec. binding, %; for IC50: read-out: Inh. of LTB4 rec. binding, IC50
Description: LTB4 Receptor Binding Study
A slightly modified method of Cheng and coworkers (Cheng J. B. et al.: J. Pharm. Expl. Ther. 236, 126 (1986)) was used. The membrane fraction was prepared from male guinea-pig spleen; 2 mg of membranes were incubated with 0.3 nM ^3 H-LTB4 at 25° C. for 30 min in 100 μl of the incubated mixture. The nonspecific binding was determined in the presence of 0.1 μM LTB4. The membranes were filtered though Whatman GF/C paper and washed triply with buffer. The radioactivity was measured by liquid scintillation spectrometry, and the specific binding of ^3 H-LTB4 to the receptor was determined.

LTD4 receptor = molecular target: T1, LTD4 receptor (Cavia porcellus, UniProt Q2NNR5); assay: LTD4 receptor binding study; conditions: 3H-LTD4, guinea-pig lung membranes; for IC50: read-out: Inh. of LTD4 rec. binding, IC50; for inhibition at 100 µM / inhibition at 20 µM: read-out: Inh. of LTD4 rec. binding, %
T1 construct: The membrane fraction was prepared from male guinea-pig lungs; from tissue; host or cells: male guinea-pig lung membranes
T1 sequence (Q2NNR5 1-340): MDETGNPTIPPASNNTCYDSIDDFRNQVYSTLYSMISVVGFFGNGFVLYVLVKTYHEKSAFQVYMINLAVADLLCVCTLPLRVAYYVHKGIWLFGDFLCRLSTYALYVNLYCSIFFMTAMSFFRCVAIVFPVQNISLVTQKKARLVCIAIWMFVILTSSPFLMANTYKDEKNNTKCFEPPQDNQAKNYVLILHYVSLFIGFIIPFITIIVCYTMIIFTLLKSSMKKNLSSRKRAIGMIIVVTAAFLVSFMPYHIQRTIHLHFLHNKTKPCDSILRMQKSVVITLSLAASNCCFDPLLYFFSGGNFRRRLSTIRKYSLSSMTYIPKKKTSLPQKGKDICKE
Description: LTD4 Receptor Binding Study
This study was performed according to the method of Burns and coworkers (Burns R. F. et al.: Life Sci. 33, 645 (1983)). The membrane fraction was prepared from male guinea-pig lungs, and 4 mg of this fraction were incubated with 0.4 nM ^3 H-LTD4 for 60 min at 25° C. in 100 μl of the incubated mixture. The nonspecific binding was determined in the presence of 0.1 μM LTD4. The filtration of the membranes, washing, and radioactivity measurement were as above.

[1] = tested on: LTB4 production in rat polymorphonuclear cells; assay: Ex vivo inhibition of LTB4 production (LTB4 biosynthesis); format: cell-based; conditions: for IC50: Rattus norvegicus, read-out: Inh. of LTB4 biosynth., IC50; for Inh. of LTB4 biosynth., %: at 30 μg (%/μg)
Description: Ex vivo Inhibition of LTB4 Production The production of LTB4 was determined in rat polymorphonuclear cells from pleural exudate elicited by heat-activated rat serum (Palmer R. M. J., Salmon J. A.: Immunology 50, 65 (1983)). The cells were stimulated with the Ca ionophore A 23187 (Sigma) and incubated with various concentrations of the drugs tested. The sample containing only buffer was used for the determination of unaffected biosynthesis; the complete inhibition was measured in a sample with 100 μg of NDGA in 1 ml. LTB4 was determined in supernatant using a commercial RIA kit (Amersham).

male mice = assay: Inhibition of arachidonic acid-induced ear inflammation in mice; format: in vivo; conditions: Mus musculus, po, 1 h
Description: Inhibition of Arachidonic Acid-induced Ear Inflammation in Mice (Opas E. E. et al.: J. Invest. Dermatol. 84, 253 (1985) Ear inflammation was induced in male mice by 20 μl of arachidonic acid dissolved in acetone (concentration 100 mg/ml). The mice were sacrificed 1 h after application of arachidonic acid and the ears were cut off by standard means. The other, vehicle-treated ear of the same animal served as a control. The degree of ear hyperemia and the weight of ear lobes were evaluated. Test compounds were administered orally 1 h before the induction of inflammation.

Wistar-Han rats = assay: Inhibition of carrageenan edema; format: in vivo; conditions: dose 100 mg/kg; for inhibition in vivo at 100 mg/kg: Rattus norvegicus, read-out: CE: inhibition of carrageenan-induced edema, % of inh.
[2] = tested on: peroxidation of lipids from the hepatic cells membranes; assay: Antioxidant effect in vitro; format: biochemical; conditions: at 100 μg
Text: Antioxidant Effect in vitro
The end-product, malonic dialdehyde, was transformed to coloured complex with thiobarbituric acid and determined spectrophotometrically. The antioxidant effect was expressed in % of peroxidation inhibition in the presence of the compound tested in comparison to a control sample.

rats = assay: Inhibition of carrageenan-induced pleuritis in rats; format: in vivo; conditions: for inhibition in vivo at 100 mg/kg: Rattus norvegicus, po, 4 h
Description: Inhibition of Carrageenan-induced Pleuritis in Rats
(Hidaka T. J.: Pharm. Pharmacol. 38, 242 (1986) 1 ml of 0.5% carrageenan solution in saline was administered intrapleurally to experimental animals under mild ether anesthesia. Test drugs were administered in single oral dose 1 h before carrageenan injection, 4 h following the carrageenan application the rats were killed and exudate was withdrawn from opened pleural cavity. The volume of exudate, its cellularity and total cell number were determined.

[3] = values with mark n: p > 0.05, read-out: Ear edema, D: edema of ear lobe, % of inh.
[4] = values with mark n: p > 0.05, read-out: Ear edema, E: hyperemia of ear lobe, % of inh.
[5] = dose 100 mg/kg, oral, values with mark n: p > 0.05, read-out: Experimental pleuritis, A: volume of exudate in pleural cavity, % of inh.
[6] = dose 100 mg/kg, oral, values with mark n: p > 0.05, read-out: Experimental pleuritis, B: number of cells, % of inh.
[7] = dose 100 mg/kg, oral, values with mark n: p > 0.05, read-out: Experimental pleuritis, C: cellularity in a volume unit, % of inh.
[8] = dose 100 mg/kg, oral, values with mark n: p > 0.05, 100 mg/kg

Sequence of LTB4 receptor (H0VYV8 1-348): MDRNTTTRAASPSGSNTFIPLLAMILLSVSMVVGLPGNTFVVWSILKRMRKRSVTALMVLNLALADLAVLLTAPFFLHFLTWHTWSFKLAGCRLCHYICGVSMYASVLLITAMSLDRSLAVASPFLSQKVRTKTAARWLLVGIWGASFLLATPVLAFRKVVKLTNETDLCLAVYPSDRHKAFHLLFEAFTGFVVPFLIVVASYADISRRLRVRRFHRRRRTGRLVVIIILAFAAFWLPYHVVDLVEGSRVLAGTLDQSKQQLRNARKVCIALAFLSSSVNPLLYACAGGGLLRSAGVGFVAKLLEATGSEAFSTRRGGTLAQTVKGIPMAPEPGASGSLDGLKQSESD

SMILES	inhibition at 20 µM (LTB4 receptor; at 20 μM) [%]	IC50 (LTD4 receptor) [µM]	inhibition at 100 µM (LTD4 receptor) [%]	IC50 [1] [µg/mL]	Inh. of LTB4 biosynth., % [1] [%]	IC50 (LTB4 receptor) [µM]	inhibition in vivo at 200 mg/kg (male mice; [3]) [%]	inhibition in vivo at 200 mg/kg (male mice; [4]) [%]	inhibition in vivo at 100 mg/kg (Wistar-Han rats) [%]	Antiox. effect, % of peroxidation inhibition [2] [%]	inhibition in vivo at 100 mg/kg (rats; [5]) [%]	inhibition in vivo at 100 mg/kg (rats; [6]) [%]	inhibition in vivo at 100 mg/kg (rats; [7]) [%]	further results
COc1cc(C(=O)NS(=O)(=O)c2ccccc2C)ccc1Cc1cn(C)c2ccc(NC(=O)OC3CCCC3)cc12 [Accolate, reference compound]	0	0.03	94	1.12 (≈ 1.95 µM)	98	–	–	–	–	–	–	–	–	–
CCCc1c(OCCOc2ccc(Sc3ccc(C(=O)O)cc3)cc2)ccc(C(C)=O)c1O [Compound 1, 4-(4-(2-(4-Acetyl-3-hydroxy-2-propylphenoxy)ethyloxy)phenylsulfanyl)benzoicAcid]	61	10.8	98	3.5 (≈ 7.5 µM)	100	17	13	8	31	54	8	17	9	–
CCCc1c(OCCOc2cccc(Sc3ccc(C(=O)O)cc3)c2)ccc(C(C)=O)c1O [Compound 2, 4-(3-(2-(4-Acetyl-3-hydroxy-2-propylphenoxy)ethyloxy)phenylsulfanyl)benzoicAcid]	98	26.1	88	0.8 (≈ 1.71 µM)	100	5.2	18	2	30	41	2	43	46	–
CCCc1c(OCCCOc2ccc(Sc3ccc(C(=O)O)cc3)cc2)ccc(C(C)=O)c1O [Compound 3, 4-(4-(3-(4-Acetyl4-3-hydroxy-2-propylphenoxy)propoxy)phenylsulfanyl)benzoicAcid]	50	19	97	0.48 (≈ 0.999 µM)	100	20	8	5	32	33	2	27	28	–
O=C(O)c1ccccc1Sc1ccc(OCCN2CCN(Cc3ccc(Cl)cc3)CC2)cc1 [Compound 11, Hydrogenmaleate of 2-(4-(2-(1-(4-Chlorobenzyl)piperazin-4-yl)ethoxy)-phenylsulfanyl)benzoic Acid]	25	120	36	0.02 (≈ 0.0414 µM)	97	–	22	0	33	10	–	–	–	–
O=C(O)c1ccccc1Sc1ccc(OCCCCN2CCN(Cc3ccc(Cl)cc3)CC2)cc1 [Compound 14]	16	33	86	9.5 (≈ 18.6 µM)	100	–	–	–	–	–	–	–	–	–
COC(=O)c1ccccc1Sc1cccc(OCCCN2CCN(CCO)CC2)c1 [Compound 15, Bis-hydrogenmaleate of Methyl 2-(3-(3-(1-(2-hydroxyethyl)piperazin-4-yl)-propoxy)phenyl-sulfanyl)benzoate]	–	–	22	12.6 (≈ 29.3 µM)	88	–	7	3	9	0	2	15	–	–
O=C(O)c1ccc(Sc2ccc(OCc3ccc4ccccc4n3)cc2)cc1 [Compound 24, Tromethammonium salt of 4-(4-(Quinoline-2-ylmethoxy)phenylsulfanyl)benzoic Acid]	–	0.31	–	–	99	14.7	–	–	–	13	–	–	–	Inh. of LTB4 rec. binding, % (LTB4 receptor; at 20 μM): 42%; CE: inhibition of carrageenan-induced edema, % of inh. (Wistar-Han rats): 27%; inhibition at 20 µM (LTD4 receptor): 95%; Inh. of LTB4 biosynth., IC50 [1]: 0.18 µg/mL; Experimental pleuritis, A: volume of exudate in pleural cavity, % of inh. (rats; [8]): 23%; Experimental pleuritis, B: number of cells, % of inh. (rats; [8]): 32%; Experimental pleuritis, C: cellularity in a volume unit, % of inh. (rats; [8]): 6%
O=C(O)Cc1ccc(Sc2ccc(OCc3ccc4ccccc4n3)cc2)cc1 [Compound 30, 4-(4-(Quinoline-2-ylmethoxy)phenylsulfanyl)phenylacetic Acid]	43	2.3	–	0.004 (≈ 0.00996 µM)	94	20.5	–	–	41	14	27	30	2	inhibition at 20 µM (LTD4 receptor): 80%
O=C(O)Cc1ccccc1Sc1ccc(OCc2ccc3cc(Cl)ccc3n2)cc1 [Compound 32, 2-(4-(6-Chloroquinoline-2-ylmethoxy)phenylsulfanyl)phenylacetic Acid]	38	1	81	–	62	30	–	–	–	14	–	–	–	–
NC(=O)N1C(=O)C(=C(O)c2cccs2)c2cc(Cl)ccc21 [Tenidap Na^+, reference compound]	8	418	10	1.04 (≈ 3.24 µM)	100	–	14	76	61	–	–	73	–	inhibition in vivo at 100 mg/kg (rats; read-out: Experimental pleuritis, A: volume of exudate in pleural cavity, % of inh.): 72%; inhibition in vivo at 100 mg/kg (rats; read-out: Experimental pleuritis, C: cellularity in a volume unit, % of inh.): 6%
